Source: patent US9957263B2, “Bromodomain inhibitors” (AbbVie Inc., priority 2013, dated 2018)

Assays:
BRD4 (BDI_K57-E168) = BRD4 (BDI_K57-E168) (Homo sapiens (Human), UniProt O60885); test: TR-FRET bromodomain binding assay, BRD4 first bromodomain; conditions: His-tagged BD1, Alexa647-labeled probe 100 nM
Procedure, shortened: (§1)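 Affinity for each isolated His-tagged domain was measured as competition with a fluorescent Alexa647 BET-inhibitor probe in a TR-FRET format at pH 6.0, 1 h room temperature incubation. Ki values were calculated from fitted IC50s, probe Kd and probe level (100 nM BDI, 30 nM BDII).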

BRD4 (BDII_E352-M457) = BRD4 (BDII_E352-M457) (Homo sapiens (Human), UniProt O60885); test: TR-FRET bromodomain binding assay, BRD4 second bromodomain; conditions: His-tagged BD2, Alexa647-labeled probe 30 nM
Procedure, shortened: as §1

`CN(C)C(=O)C1(N2CCCC2=O)CCN(Cc2cc3c(-c4cc(S(C)(=O)=O)ccc4Oc4ccc(F)cc4F)cn(C)c(=O)c3[nH]2)CC1` [Example 155, 1-({4-[2-(2,4-difluorophenoxy)-5-(methylsulfonyl)phenyl]-6-methyl-7-oxo-6,7-dihydro-1H-pyrrolo[2,3-c]pyridin-2-yl}methyl)-N,N-dimethyl-4-(2-oxopyrrolidin-1-yl)piperidine-4-carboxamide] was tested, and the Ki (BRD4 (BDI_K57-E168)) was 23.7 nM and the Ki (BRD4 (BDII_E352-M457)) was 364 nM.

Compound `CC(=O)c1ccc(S(=O)(=O)Nc2cccc(Oc3ccc(S(C)(=O)=O)cc3-c3cn(C)c(=O)c4[nH]ccc34)c2)cc1` [Example 44, 4-acetyl-N-{3-[2-(6-methyl-7-oxo-6,7-dihydro-1H-pyrrolo[2,3-c]pyridin-4-yl)-4-(methylsulfonyl)phenoxy]phenyl}benzenesulfonamide] has a Ki (BRD4 (BDI_K57-E168)) of 4.9 nM and a Ki (BRD4 (BDII_E352-M457)) of 2.1 nM.

In the case of `Cn1cc(-c2cc(S(C)(=O)=O)ccc2Oc2cccc(NS(=O)(=O)c3cccc([N+](=O)[O-])c3)c2)c2cc[nH]c2c1=O` [Example 51, N-{3-[2-(6-methyl-7-oxo-6,7-dihydro-1H-pyrrolo[2,3-c]pyridin-4-yl)-4-(methylsulfonyl)phenoxy]phenyl}-3-nitrobenzenesulfonamide], the Ki (BRD4 (BDI_K57-E168)) is reported as 5 nM and the Ki (BRD4 (BDII_E352-M457)) is reported as 3 nM.

`CN(CC#N)C(=O)c1cccc(Oc2ccc(S(C)(=O)=O)cc2-c2cn(C)c(=O)c3[nH]ccc23)c1` [Example 32, N-(cyanomethyl)-N-methyl-3-[2-(6-methyl-7-oxo-6,7-dihydro-1H-pyrrolo[2,3-c]pyridin-4-yl)-4-(methylsulfonyl)phenoxy]benzamide] was tested, and the Ki (BRD4 (BDI_K57-E168)) was 21 nM and the Ki (BRD4 (BDII_E352-M457)) was 10 nM.

`CN(C)CCNC(=O)c1cccc(Oc2ccc(S(C)(=O)=O)cc2-c2cn(C)c(=O)c3[nH]ccc23)c1` [Example 33, N-[2-(dimethylamino)ethyl]-3-[2-(6-methyl-7-oxo-6,7-dihydro-1H-pyrrolo[2,3-c]pyridin-4-yl)-4-(methylsulfonyl)phenoxy]benzamide] gave a Ki (BRD4 (BDI_K57-E168)) of 8.1 nM and a Ki (BRD4 (BDII_E352-M457)) of 3.1 nM.

For `CN(C)CC(=O)N1CCC(Nc2ccc(S(C)(=O)=O)cc2-c2cn(C)c(=O)c3[nH]ccc23)CC1` [Example 85, 4-[2-({1-[(dimethylamino)acetyl]piperidin-4-yl}amino)-5-(methylsulfonyl)phenyl]-6-methyl-1,6-dihydro-7H-pyrrolo[2,3-c]pyridin-7-one], the Ki (BRD4 (BDI_K57-E168)) was 8 nM and the Ki (BRD4 (BDII_E352-M457)) was 60 nM.

With `CN(C)CCN1CCN(C(=O)c2cccc(Oc3ccc(S(C)(=O)=O)cc3-c3cn(C)c(=O)c4[nH]ccc34)c2)CC1` [Example 29, 4-{2-[3-({4-[2-(dimethylamino)ethyl]piperazin-1-yl}carbonyl)phenoxy]-5-(methylsulfonyl)phenyl}-6-methyl-1,6-dihydro-7H-pyrrolo[2,3-c]pyridin-7-one] the Ki (BRD4 (BDI_K57-E168)) was 19 nM and the Ki (BRD4 (BDII_E352-M457)) was 9.1 nM.

Work on `CSCC(=O)N1CCC(Nc2ccc(S(C)(=O)=O)cc2-c2cn(C)c(=O)c3[nH]ccc23)CC1` [Example 91, 6-methyl-4-[2-({1-[(methylsulfanyl)acetyl]piperidin-4-yl}amino)-5-(methylsulfonyl)phenyl]-1,6-dihydro-7H-pyrrolo[2,3-c]pyridin-7-one] yielded a Ki (BRD4 (BDI_K57-E168)) of 5 nM and a Ki (BRD4 (BDII_E352-M457)) of 7.5 nM.

Work on `Cn1cc(-c2cc(S(C)(=O)=O)ccc2Oc2cccc(NS(=O)(=O)c3ccc(F)cc3)c2)c2cc[nH]c2c1=O` [Example 41, 4-fluoro-N-{3-[2-(6-methyl-7-oxo-6,7-dihydro-1H-pyrrolo[2,3-c]pyridin-4-yl)-4-(methylsulfonyl)phenoxy]phenyl}benzenesulfonamide] yielded a Ki (BRD4 (BDI_K57-E168)) of 11 nM and a Ki (BRD4 (BDII_E352-M457)) of 5.1 nM.

For `CCNC(=O)c1cc2c(-c3cc(S(=O)(=O)CC)ccc3Oc3c(C)cccc3Cn3cccn3)cn(C)c(=O)c2[nH]1` [Example 145, N-ethyl-4-{5-(ethylsulfonyl)-2-[2-methyl-6-(1H-pyrazol-1-ylmethyl)phenoxy]phenyl}-6-methyl-7-oxo-6,7-dihydro-1H-pyrrolo[2,3-c]pyridine-2-carboxamide], the Ki (BRD4 (BDI_K57-E168)) was 807 nM and the Ki (BRD4 (BDII_E352-M457)) was 8.7 nM.
